Reference: patent US20240041042A1, “1-(PYRIDYL)-5-AZINYLPYRAZOLE DERIVATIVES, AND THEIR USE FOR CONTROL OF UNDESIRED PLANT GROWTH” (Bayer Aktiengesellschaft, priority 2020, published 2024)
Read-outs that look alike come from different tables or passages of the source.

Tests used:
Assay type in all cases: in vivo
Lolium rigidum (LOLRI) [1] = assay: Post-emergence herbicidal action against LOLRI
Outline: (§1)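 Doses of 320 g/ha or lower, suffixes a, b and c marking different dosages, were applied post-emergence at the one-leaf stage in 600 l/ha water with 0.5% additive. Damage was assessed visually after about 3 weeks in the greenhouse.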

[2] = system: Matricaria inodora (MATIN); assay: Post-emergence herbicidal action against MATIN; conditions: dosage 320 g/ha
Outline: as §1

[3] = system: Echinochloa crus-galli (ECHCG); assay: Post-emergence herbicidal action against ECHCG
Outline: as §1

Lolium rigidum (LOLRI) [4] = assay: Pre-emergence herbicidal action against LOLRI
Outline: (§2)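 Greenhouse pot trial: seeds sown, soil-covered, sprayed before emergence with compound in water (0.5% additive; 600 l/ha; ≤320 g/ha). Scoring visual, ~3 weeks, 0–100% scale vs untreated.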

Oryza sativa (ORYSA) [5] = conditions: crop plant compatibility, effect in comparison to untreated controls
Outline: (§3)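 Foliar application at the one-leaf stage: WP/EC formulation, 0.5% additive, 600 l/ha water. Greenhouse-grown in sandy loam. Endpoint is visual % injury relative to untreated controls at about 3 weeks.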

[6] = system: Echinochloa crus-galli (ECHCG); assay: Pre-emergence herbicidal action against ECHCG
Outline: as §2

Viola tricolor (VIOTR) [7] = assay: Pre-emergence herbicidal action against VIOTR
Outline: as §2

Setaria viridis (SETVI) [8] = assay: Post-emergence herbicidal action against SETVI
Outline: as §1

Setaria viridis (SETVI) [9] = assay: Pre-emergence herbicidal action against SETVI
Outline: as §2

[10] = system: Alopecurus myosuroides (ALOMY); assay: Pre-emergence herbicidal action against ALOMY; conditions: 320 g/ha; scored visually after about 3 weeks; 100% = plants have died
Outline: as §2

[11] = system: Amaranthus retroflexus (AMARE); assay: Post-emergence herbicidal action against AMARE
Outline: as §1

Glycine max (GLXMA) = conditions: pre-emergence, crop plant compatibility, in comparison to untreated controls
Outline: (§4)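 Scoring: visual, % of untreated control, about 3 weeks after a pre-emergence application to the soil surface. Application used WP or EC formulations diluted in water with 0.5% additive at 600 l/ha; dosage levels are marked by suffixes a, b and c.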

[12] = system: Matricaria inodora (MATIN); assay: Pre-emergence herbicidal action against MATIN; conditions: dosage 320 g/ha
Outline: as §2

Avena fatua (AVEFA) [13] = assay: Post-emergence herbicidal action against AVEFA; conditions: visual rating about 3 weeks after treatment
Outline: as §1

[14] = system: Verconica persica (VERPE); assay: Post-emergence herbicidal action against VERPE
Outline: as §1

[15] = system: Digitaria sanguinalis (DIGSA); assay: Pre-emergence herbicidal action against DIGSA
Outline: as §2

Avena fatua (AVEFA) [16] = assay: Pre-emergence herbicidal action against AVEFA; conditions: 320 g/ha, visual scoring after about 3 weeks vs untreated controls
Outline: as §2

[17] = system: Polygonum convolvulus (POLCO); assay: Post-emergence herbicidal action against POLCO
Outline: as §1

[18] = system: Amaranthus retroflexus (AMARE); assay: Pre-emergence herbicidal action against AMARE; conditions: 320 g/ha, visual scoring after about 3 weeks vs untreated controls
Outline: as §2

[19] = system: Digitaria sanguinalis (DIGSA); assay: Post-emergence herbicidal action against DIGSA; conditions: 320 g/ha, visual rating about 3 weeks after treatment
Outline: as §1

Viola tricolor (VIOTR) [20] = assay: Post-emergence herbicidal action against VIOTR
Outline: as §1

[21] = system: Verconica persica (VERPE); assay: Pre-emergence herbicidal action against VERPE; conditions: dosage 320 g/ha
Outline: as §2

[22] = system: Pharbitis purpurea (PHBPU); assay: Post-emergence herbicidal action against PHBPU; conditions: dosage 320 g/ha
Outline: as §1

[23] = system: Alopecurus myosuroides (ALOMY); assay: Post-emergence herbicidal action against ALOMY; conditions: 320 g/ha, visual rating about 3 weeks after treatment vs untreated controls (100% = plants have died, 0% = like control plants)
Outline: as §1

Zea mays (ZEAMX) [24] = conditions: crop plant compatibility, 80 g/ha, effect vs untreated controls
Outline: as §3

Zea mays (ZEAMX) [25] = conditions: pre-emergence, crop plant compatibility, in comparison to untreated controls
Outline: as §4

[26] = system: Polygonum convolvulus (POLCO); assay: Pre-emergence herbicidal action against POLCO; conditions: dosage 320 g/ha
Outline: as §2

Oryza sativa (ORYSA) [27] = conditions: pre-emergence, crop plant compatibility, in comparison to untreated controls
Outline: as §4

[28] = 320 g/ha, visual rating about 3 weeks after treatment

| SMILES | Post-emergence action against LOLRI in % (Lolium rigidum (LOLRI) [1]; dosage 320 g/ha) | Pre-emergence action against LOLRI in % (Lolium rigidum (LOLRI) [4]; dosage 320 g/ha) | Post-emergence action against ORYSA in % (Oryza sativa (ORYSA) [5]; 80 g/ha) | Pre-emergence action against VIOTR in % (Viola tricolor (VIOTR) [7]; 320 g/ha, Viola tricolor) | Pre-emergence action against ALOMY [10] | Post-emergence action against AMARE in % [11, 28] | Pre-emergence action against GLXMA in % (Glycine max (GLXMA); 80 g/ha) | Post-emergence action against VERPE in % ([14]; 320 g/ha, VERPE) | Pre-emergence action against DIGSA in % ([15]; dosage 320 g/ha) | Post-emergence action against POLCO in % ([17]; dosage 320 g/ha) | Pre-emergence action against AMARE in % [18] | Post-emergence action against DIGSA in % [19] | Post-emergence action against VIOTR in % (Viola tricolor (VIOTR) [20]; 80 g/ha) | Post-emergence action against VIOTR in % (Viola tricolor (VIOTR) [20]; 320 g/ha) | Post-emergence action against PHBPU in % [22] | Post-emergence action against ALOMY in % [23] | Post-emergence action against ORYSA in % (Oryza sativa (ORYSA) [5]; 320 g/ha) | Post-emergence action against ZEAMX in % (Zea mays (ZEAMX) [24]) | Pre-emergence action against ZEAMX in % (Zea mays (ZEAMX) [25]; 80 g/ha) | also measured |
| --- | --- | --- | --- | --- | --- | --- | --- | --- | --- | --- | --- | --- | --- | --- | --- | --- | --- | --- | --- | --- |
| COC(=O)[C@@H](C)Oc1nn(-c2nc(F)ccc2F)c(-c2ccc(F)nc2)c1C1CC1 [Example I-298] | 90% | 100% | 20% | 100% | 90% | 80% | 20% | 80% | 100% | 80% | 100% | 80% | 80% | 90% | 90% | 90% |  |  |  | Post-emergence action against LOLRI in % (Lolium rigidum (LOLRI) [1]; dosage 80 g/ha): 90%; Post-emergence action against MATIN in % [2]: 80%; Post-emergence action against ECHCG in % ([3]; dosage 80 g/ha): 80%; Post-emergence action against ECHCG in % ([3]; dosage 320 g/ha): 90%; Pre-emergence action against LOLRI in % (Lolium rigidum (LOLRI) [4]; dosage 80 g/ha): 90%; Pre-emergence action against ECHCG in % ([6]; dosage 80 g/ha): 90%; Pre-emergence action against ECHCG in % ([6]; dosage 320 g/ha): 100%; Pre-emergence action against VIOTR in % (Viola tricolor (VIOTR) [7]; dosage 80 g/ha): 100%; Post-emergence action against SETVI in % (Setaria viridis (SETVI) [8]; dosage 80 g/ha): 90%; Post-emergence action against SETVI in % (Setaria viridis (SETVI) [8]; dosage 320 g/ha): 90%; Pre-emergence action against SETVI in % (Setaria viridis (SETVI) [9]; dosage 80 g/ha): 100%; Pre-emergence action against SETVI in % (Setaria viridis (SETVI) [9]; dosage 320 g/ha): 100%; Pre-emergence action against MATIN in % [12]: 90%; Post-emergence action against AVEFA in % (Avena fatua (AVEFA) [13]; 80 g/ha): 80%; Post-emergence action against AVEFA in % (Avena fatua (AVEFA) [13]; 320 g/ha): 90%; Post-emergence action against VERPE in % ([14]; dosage 80 g/ha): 80%; Pre-emergence action against DIGSA in % ([15]; 80 g/ha, visual scoring after about 3 weeks vs untreated controls): 100%; Pre-emergence action against AVEFA in % (Avena fatua (AVEFA) [16]): 90%; Pre-emergence action against VERPE in % [21]: 100% |
| COC(=O)CCOC(=O)[C@@H](C)Oc1nn(-c2ccccn2)c(-c2ccc(Cl)nc2)c1Br [Example I-244] | 80% | 100% |  | 90% | 90% |  | 0% |  | 90% | 80% | 90% | 80% | 80% | 80% | 80% | 80% | 0% | 20% | 0% | Pre-emergence action against POLCO in % [26]: 80%; Post-emergence action against POLCO in % ([17]; dosage 80 g/ha): 80% |
| C[C@@H](Oc1nn(-c2ccnc(Cl)c2)c(-c2ccc(F)nc2)c1Br)C(=O)O [III-30] |  |  | 10% |  |  | 90% | 20% | 80% |  | 90% |  |  |  | 80% |  | 80% | 20% | 20% | 0% | Post-emergence action against AMARE in % ([11]; 80 g/ha, visual rating about 3 weeks after treatment vs untreated controls (100% = plants have died, 0% = like control plants)): 80%; Pre-emergence action against ORYSA in % (Oryza sativa (ORYSA) [27]; 80 g/ha): 10%; Pre-emergence action against ORYSA in % (Oryza sativa (ORYSA) [27]; 320 g/ha): 20%; Pre-emergence action against ZEAMX in % (Zea mays (ZEAMX) [25]; 320 g/ha): 10%; Pre-emergence action against GLXMA in % (Glycine max (GLXMA); 320 g/ha): 20% |
